Results published in patent US9457016B2, “Methods for treating polycystic kidney disease” (New York University, priority 2013, dated 2016).

Tests used:
[1] = target: T1, GLS1 (Homo sapiens, UniProt O94925); conditions: dimeric vs tetrameric GLS1; cited from earlier work
T1 sequence (O94925 55-669): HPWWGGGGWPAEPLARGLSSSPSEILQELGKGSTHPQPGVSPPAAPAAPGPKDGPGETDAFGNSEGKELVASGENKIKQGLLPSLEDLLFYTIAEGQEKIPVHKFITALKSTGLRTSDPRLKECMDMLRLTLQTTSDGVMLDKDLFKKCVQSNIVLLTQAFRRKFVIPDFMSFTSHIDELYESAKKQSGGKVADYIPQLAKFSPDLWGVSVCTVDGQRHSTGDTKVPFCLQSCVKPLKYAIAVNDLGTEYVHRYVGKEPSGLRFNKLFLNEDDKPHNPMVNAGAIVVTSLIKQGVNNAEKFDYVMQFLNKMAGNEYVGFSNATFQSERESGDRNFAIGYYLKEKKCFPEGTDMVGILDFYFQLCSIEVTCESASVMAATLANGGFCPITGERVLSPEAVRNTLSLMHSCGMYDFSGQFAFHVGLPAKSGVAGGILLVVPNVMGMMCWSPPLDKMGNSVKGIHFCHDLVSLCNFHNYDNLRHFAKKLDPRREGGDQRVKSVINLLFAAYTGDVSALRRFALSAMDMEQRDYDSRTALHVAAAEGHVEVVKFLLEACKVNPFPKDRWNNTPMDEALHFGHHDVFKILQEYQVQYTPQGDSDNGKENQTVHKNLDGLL

[2] = cited from earlier work
[3] = test system: ADPKD cells; experiment: Intracellular ATP levels; type: cell-based, human; conditions: 24 hours
Source text: α-ketoglutarate also feeds directly into the tricarboxylic acid (TCA) cycle and therefore metabolism of α-ketoglutarate is an important source of ATP from glutamine.

[4] = test system: Pkd1^fl/fl; Pkhd1-Cre mice; experiment: Pkd1fl/fl; Pkhd1-Cre mouse model of ADPKD; type: in vivo
Source text: As described in Karihaloo et al. (2011, J Am Soc Nephrol 22: 1809-1814), Pkd1^fl/fl; Pkhd1-Cre mice may be generated by crossing Pkd1fl/fl mice with Pkhd1-Cre mice13 so as to achieve kidney-specific deletion of the Pkd1 allele. See also Shibazaki et al. (2008, Hum Mol Genet 17, 1505-1516) and Patel et al. (2008, Hum Mol Genet 17, 1578-1590). The entire content of each of Karihaloo et al., Shibazaki et al., and Patel et al. is incorporated herein by reference.
Pkhd-Cre Mice: This is a very robust and reproducible early model of PKD. The Somlo lab has shown that Pkhd-cre expresses and deletes predominantly in collecting tubules Ma et al. (2013, Nature genetics, 45: 1004-1012; the entire content of which is incorporated herein by reference).

[5] = test system: ADPKD cells; experiment: Cyst formation of ADPKD cells plated in collagen, forskolin stimulated; type: cell-based, human
Experimental: FIG. 1. […] Images are at 10×. BF=bright field.
FIG. 2. Quantification of cyst size and cyst number in ADPKD cells incubated with or without BPTES. Total number of cysts in FIG. 1 was counted and stratified by cyst size. Asterisks indicate statistically significant findings.
FIG. 10. siRNA to Gls1 inhibits cyst formation of ADPKD cells. ADPKD cells were transfected with a control or siRNA to Gls1 and cyst formation was assessed. Number of cysts in control (blue), siRNA transfected cells (green), or siRNA transfected cells cultured with dimethyl α-ketoglutarate (red).
FIG. 10 depicts results from experiments using siRNA to Gls1 to determine the effects of same on cyst formation of ADPKD cells. […] The following are exemplary siRNA sequences used for inhibition of Gls1 […] (SEQ ID NO: 1); SASI_Hs01_00071573-[…][dT][dT] (SEQ ID NO: 2); 2260 NM_014905-[…] (SEQ ID NO: 3); SASI_Hs01_00071574-[…][dT][dT] (SEQ ID NO: 4); 1081 NM_014905-[…] (SEQ ID NO: 5).
The present inventors have made the surprising discovery that inhibiting glutaminase 1 (gls1) blocks cyst formation and proliferation by ADPKD cells. […] ADPKD cells were plated in collagen and stimulated with the cyclic 3′-5′-adenosine monophosphate (cAMP) agonist forskolin. […] The results are depicted graphically in FIG. 2, wherein the data were stratified according to both the number of observable cysts and their size.

[6] = test system: ADPKD cells; experiment: Seahorse analysis of ATP production and mitochondrial oxygen consumption; type: cell-based, human
Experimental: FIG. 13A-B. Seahorse analysis of ADPKD cells. ADPKD cells that were unstimulated or stimulated with forskolin in the presence or absence of BPTES and mitochondrial oxygen consumption was determined by seahorse analysis. (A) Schematic of the method and analysis. Oligomycin inhibits ATP synthase. FCCP is a mitochondrial uncoupler and leads to maximal OCR and rotenone interferes with electron transport. (B) Inhibition of ATP generation was also found by Seahorse analysis. ADPKD cells were unstimulated in the absence (C) or presence of BAPTES (B) or stimulated with forskolin in the absence (F) or presence of BPTES (FB).
The decreased generation of α-ketoglutarate, which feeds directly into tricarboxylic acid (TCA) would be predicted to lead to decreased TCA intermediates required for mitochondrial respiration and ATP generation. Seahorse analysis (Seahorse Biosciences) was performed on ADPKD cells that were either unstimulated or stimulated with forskolin in the presence or absence of BPTES.

[7] = test system: mTor; experiment: mTOR activation by anti-phospho-S6 immunoblot after amino acid refeeding; type: cell-based, human; conditions: ADPKD cells refed glutamine and lysine 30 or 60 minutes after 3 hours amino acid deprivation
Experimental: FIG. 14. […] Cells were then lysed and mTOR activation was assessed by immunoblotting with anti-phospho-S6 antibodies (pS6). To control for loading, the same samples were immunoblotted with antibodies to actin (Actin).

[8] = test system: mTor; experiment: Recruitment of mTor to lysosome, immunofluorescence with LAMP; type: cell-based, human; conditions: ADPKD cells refed with amino acids (QL)
Source text: (A) Schematic depicting mTor activation, which is mediated by the recruitment of mTor to the lysosome. (B) ADPKD cells were stimulated as in FIG. 14 and then subjected to immunofluorescence analysis with antibodies to LAMP (lysosomal associated membrane protein) which stains lysosomes and mTor. Co-localization is shown by a yellow signal following the merging of the green mTor signal and the red LAMP signal. Refeeding with amino acids (QL) led to colocalization or recruitment of mTor to the lysosome as manifested by yellow staining in the merged image (compare −QL with +QL), which was abolished by treatment with BPTES.

[9] = test system: PKD1^flox/flox; Tamoxifen-Cre mice; type: in vivo; conditions: BPTES 12.5 mg/kg IP BID, postnatal day 15-32, N=4, vs vehicle control
Experimental: FIG. 12A-C. […] Mice were sacrificed on day 32 and analyzed. (A) Scan of sagittal section of littermates treated with BPTES or vehicle control; (B) Kidney wt/body wt; (C) cystic index.
Cre recombinase was induced on postnatal day 10 by administering tamoxifen (10 mg/40 g) intraperitoneally (IP) on two consecutive days. […] Only same sexed mice from same litters were compared.
Early Models. PKD1^flox/flox; Tamoxifen-Cre Mice: The present inventors obtained the tamoxifen-Cre mouse model from G. Germino. For early onset disease, Cre recombinase is induced at day 10 by administering tamoxifen (10 mg/40 g) intraperitoneally (IP) on 2 consecutive days as described in FIG. 12 above and in Piontek et al. (2007, Nature medicine, 13: 1490-1495; the entire content of which is incorporated herein by reference).

[10] = test system: ADPKD cells; experiment: 8-bromo-cAMP stimulated proliferation, MTT assay; type: cell-based, human; conditions: 8-bromo-cAMP + BPTES
[11] = test system: ADPKD cells; experiment: Forskolin-induced proliferation, MTT assay; type: cell-based, human; conditions: co-culture of ADPKD cells with α-ketoglutarate
Experimental: FIG. 3. […] Proliferation was then quantitated 24 hours later using the MTT assay kit (Promega).
Elevated intracellular concentration of cAMP is characteristic of ADPKD cells in vivo and mediates activation of signaling pathways that lead to proliferation of ADPKD cells. Gls1 is also critical for proliferation of ADPKD cells.

[12] = BPTES 12.5 mg/kg IP QOD, postnatal day 10-24, vs vehicle control
[13] = ADPKD cells in collagen, forskolin, cultured 2 weeks with or without BPTES

In the case of `CN(C)c1ccc(C2Nc3ccc4ccccc4c3C3=C2C(=O)CC(C)(C)C3)cc1Br` (stereo not shown) [compound 968, 5-(3-bromo-4-(dimethylamino)phenyl)-2,2-dimethyl-2,3,5,6-tetrahydrobenzo[a]phenanthridin-4(1H)-one], the “inhibition of GLS1 oligomeric forms” value [1] is given as “only inhibits the nonactivated dimeric GLS1 and not the active tetramer” and the aqueous solubility [2] is given as “poor aqueous solubility”.
In the case of `O=C(Cc1ccccc1)Nc1nnc(CCSCCc2nnc(NC(=O)Cc3ccccc3)s2)s1` [BPTES], the “intracellular ATP levels” value [3] is reported as “significant decrease”, the cyst volume [4, 12] is reported as “significantly decreased” and the kidney size [4, 12] is reported as “significantly decreased”. For the same molecule, the kidney function ([4]; following BPTES administration) was “some preservation/restoration of kidney function was observed”, the number of cysts [5, 13] was “markedly reduces the number of cysts” and the size of cysts [5, 13] was “profoundly decreases the size of those cysts that are formed”. For the same molecule, the “basal and forskolin stimulated ATP production” value [6] was “inhibited”, the “basal and forskolin stimulated mitochondrial O2 consumption” value [6] was “inhibited” and the “mTor activation (pS6)” value [7] was “inhibits mTor activation”. For the same molecule, the “colocalization or recruitment of mTor to the lysosome” value [8] was “abolished” and the cyst growth [9] was “statistically significant inhibition of cyst growth”.
For `COC(=O)CCC(=O)C(=O)OC` [dimethyl α-ketoglutarate], the “rescue of cyst formation in siRNA transfected cells” value ([5]; dimethyl α-ketoglutarate added to the medium) was “statistically significant rescue of cyst formation”, the “rescue of BPTES inhibition of proliferation” value [10] was “rescued the inhibition of proliferation” and the “reversal of BPTES inhibition of proliferation” value [11] was “reversed the inhibition of proliferation by BPTES”.
